Source: patent US9730944B2, “Antiviral activity of novel bicyclic heterocycles” (priority 2010, dated 2017)
Values after ≈ are worked out from the molar mass of the structure shown. Read-outs that look alike come from different tables or passages of the source.

Key:
[1] = test system: HIV-1 strain IIIB; assay: Inhibition of replication of HIV-1 (IIIB strain) in MT-4 cells, MTT assay; assay type: cell-based; settings: Human immunodeficiency virus 1, IIIB, MT4, 120 h, read-out: EC50 (μM) HIV-1 (IIIB)
[2] = test system: genotype 1a H-77 replicon; assay: HCV-1a replicon potency in RLuc-1 cells, bioluminescence; assay type: cell-based; settings: for HCV-1a Replicon Selectivity Index: CC50/EC50, genotype 1a replicon; for EC50: Hepatitis C virus, 72 h, read-out: HCV-1a Replicon EC50 (μM)
[3] = in vitro; settings: African green monkey, PV CC50
[4] = test system: HIV-2 strain (ROD); assay: Inhibition of replication of HIV-2 (ROD strain) in MT-4 cells, MTT assay; assay type: cell-based; settings: Human immunodeficiency virus 2, MT4, 120 h, read-out: EC50 (μM) HIV-2 (ROD)
[5] = test system: poliovirus (PV type 1); assay: microbe, parasite or virus in culture; assay type: cell-based; settings: Enterovirus C, read-out: PV-1 EC50
[6] = test system: poliovirus (PV type 2); assay: microbe, parasite or virus in culture; assay type: cell-based; settings: Enterovirus C, read-out: PV-2 EC50
[7] = in vitro; settings: human, PV CC50
[8] = in vitro; settings: human
[9] = test system: poliovirus (PV type 3); assay: microbe, parasite or virus in culture; assay type: cell-based; settings: Enterovirus C, read-out: PV-3 EC50
[10] = Cytotoxicity in HCV-1a replicon cells, Promega CellTiter-Glo cell viability assay
[11] = Cytostatic/cytotoxic effect in Hela Rh cells (rhinovirus methodology, MTS); settings: human, CC50, Hela Rh cells
[12] = MT-4 cells, MTT assay, five days after infection, 50% protection from cytopathic effect

SMILES	EC50 [1, 12]	HCV-1a Replicon Selectivity Index [2]	EC50 [2]	CC50 [3]	EC50 [4, 12]	EC50 ([5]; HeLa)	EC50 ([5]; Vero)	EC50 ([6]; HeLa)	EC50 ([6]; Vero)	CC50 [7]	CC50 [8]	EC50 ([9]; HeLa)	EC50 ([9]; Vero)	CC50 at 72 h [10]	CC50 [11]	EC50 [1]	EC50 [4]
Nc1nc(N2CCN(C(=O)COc3ccc(Cl)cc3)CC2)c2nc(CCc3ccc(F)cc3)sc2n1 [Example 49, 1-(4-(5-amino-2-(4-fluorophenethyl)-thiazolo[5,4-d]pyrimidin-7-yl)piperazin-1-yl)-2-(4-chlorophenoxy)ethanone]	1.13 µM	>1.1	42.1 µM	101 µg/mL (≈ 192 µM)	> 7.06 µM	0.13 µg/mL (≈ 0.247 µM)	0.13 µg/mL (≈ 0.247 µM)	0.13 µg/mL (≈ 0.247 µM)	0.21 µg/mL (≈ 0.398 µM)	> 50 µg/mL	> 50 µM	> 50 µg/mL	1.17 µg/mL (≈ 2.22 µM)	> 44.4 µM			
COCc1nc2c(N3CCN(C(=O)COc4ccc(Cl)cc4)CC3)nc(N)nc2o1 [Example 186, 5-amino-7-[4-(4-chlorophenoxyacetyl)piperazin-1-yl]-2-methoxylmethyloxazolo[5,4-d]pyrimidine]			> 44.4 µM	95.2 µg/mL (≈ 220 µM)		3.16 µg/mL (≈ 7.3 µM)	1.07 µg/mL (≈ 2.47 µM)	9.42 µg/mL (≈ 21.8 µM)	2.96 µg/mL (≈ 6.84 µM)	> 50 µg/mL		3.21 µg/mL (≈ 7.42 µM)	10.7 µg/mL (≈ 24.7 µM)	> 44.4 µM			
Nc1nc(N2CCN(C(=O)COc3ccc(Cl)cc3)CC2)c2nc(C3CCCCC3)oc2n1 [Example 187, 5-amino-2-cyclohexyl-7-[4-(4-chlorophenoxyacetyl)piperazin-1-yl]oxazolo[5,4-d]pyrimidine]		1.3	19 µM	118 µg/mL (≈ 250 µM)		> 50 µg/mL	> 50 µg/mL	> 50 µg/mL	≥ 50 µg/mL	> 50 µg/mL		> 50 µg/mL	> 50 µg/mL	24.3 µM			
Nc1nc(N2CCN(C(=O)COc3ccc(Cl)cc3)CC2)c2nc(CCc3ccccc3)oc2n1 [Example 189, 5-amino-2-(2-phenylethyl)-7-[4-(4-chlorophenoxyacetyl)piperazin-1-yl]oxazolo[5,4-d]pyrimidine]		2.0	20.6 µM	> 150 µg/mL		1.14 µg/mL (≈ 2.31 µM)	0.86 µg/mL (≈ 1.74 µM)	1.15 µg/mL (≈ 2.33 µM)	0.4 µg/mL (≈ 0.811 µM)	> 50 µg/mL		> 50 µg/mL	1.19 µg/mL (≈ 2.41 µM)	40.5 µM			
Cc1ccc(-c2nc3c(N4CCN(C(=O)COc5ccc(Cl)cc5)CC4)nc(N)nc3s2)cc1 [Example 295, 1-(4-(5-amino-2-p-tolylthiazolo[5,4-d]pyrimidin-7-yl)piperazin-1-yl)-2-(4-chlorophenoxy)ethanone]															> 50 µg/mL		
COCCNC(=O)c1nc(N2CCN(C(=O)COc3ccc(Cl)cc3)CC2)c2cc(-c3ccc(F)cc3)sc2n1 [Example 356, 4-(4-(2-(4-chlorophenoxy)acetyl)piperazin-1-yl)-6-(4-fluorophenyl)-N-(2-methoxyethyl)thieno[2,3-d]pyrimidine-2-carboxamide]	> 155 µM			108 µg/mL (≈ 185 µM)	> 155 µM	> 50 µg/mL	> 50 µg/mL	≥ 50 µg/mL	≥ 50 µg/mL	> 50 µg/mL	> 155 µM	> 50 µg/mL	> 50 µg/mL				
O=C(O)c1nc(N2CCN(C(=O)COc3ccc(Cl)cc3)CC2)c2cc(-c3ccc(F)cc3)sc2n1 [Example 357, 4-(4-(2-(4-chlorophenoxy)acetyl)piperazin-1-yl)-6-(4-fluorophenyl)thieno[2,3-d]pyrimidine-2-carboxylic acid]	157 µM			61.4 µg/mL (≈ 117 µM)	> 237 µM	> 50 µg/mL	> 50 µg/mL	≥ 50 µg/mL	> 50 µg/mL	> 50 µg/mL	> 237 µM	> 50 µg/mL	> 50 µg/mL				
NC(=O)Cc1nc(N2CCN(C(=O)COc3ccc(Cl)cc3)CC2)c2cc(-c3ccc(F)cc3)sc2n1 [Example 358, 2-(4-(4-(2-(4-chlorophenoxy)acetyl)piperazin-1-yl)-6-(4-fluorophenyl)thieno[2,3-d]pyrimidin-2-yl)acetamide]	> 19.1 µM			> 150 µg/mL	> 19.1 µM	> 50 µg/mL	> 50 µg/mL	≥ 50 µg/mL	> 50 µg/mL	> 50 µg/mL	> 19.1 µM	> 50 µg/mL	> 50 µg/mL				
Cc1cccc(NC(=O)N2CCN(c3nc(N)nc4sc(-c5ccc(F)cc5)cc34)CC2)c1 [Example 359, 4-(2-amino-6-(4-fluorophenyl)thieno[2,3-d]pyrimidin-4-yl)-N-m-tolylpiperazine-1-carboxamide]	6.18 µM			> 150 µg/mL	10.4 µM	0.94 µg/mL (≈ 2.03 µM)	0.43 µg/mL (≈ 0.93 µM)	0.41 µg/mL (≈ 0.886 µM)	0.21 µg/mL (≈ 0.454 µM)	> 50 µg/mL	140 µM	1.07 µg/mL (≈ 2.31 µM)	0.73 µg/mL (≈ 1.58 µM)				
Cc1cccc(NC(=O)N2CCN(c3nc(-c4ccccc4)nc4sc(-c5ccc(F)cc5)cc34)CC2)c1 [Example 360, 4-(6-(4-fluorophenyl)-2-phenylthieno[2,3-d]pyrimidin-4-yl)-N-m-tolylpiperazine-1-carboxamide]	> 239 µM			93.4 µg/mL (≈ 178 µM)	> 239 µM	> 50 µg/mL	> 50 µg/mL	≥ 50 µg/mL	10.5 µg/mL (≈ 20.1 µM)	> 50 µg/mL	> 239 µM	> 50 µg/mL	> 50 µg/mL				
CCOC(=O)c1nc(N2CCN(C(=O)Nc3cccc(C)c3)CC2)c2cc(-c3ccc(F)cc3)sc2n1 [Example 361, ethyl 6-(4-fluorophenyl)-4-(4-(m-tolylcarbamoyl)piperazin-1-yl)thieno[2,3-d]pyrimidine-2-carboxylate]				61.7 µg/mL (≈ 119 µM)		> 50 µg/mL	> 50 µg/mL	≥ 50 µg/mL	> 50 µg/mL	> 50 µg/mL	156 µM	> 50 µg/mL	> 50 µg/mL			≥ 156 µM	≥ 156 µM
Cc1cccc(NC(=O)N2CCN(c3nc(C(N)=O)nc4sc(-c5ccc(F)cc5)cc34)CC2)c1 [Example 362, 6-(4-fluorophenyl)-4-(4-(m-tolylcarbamoyl)piperazin-1-yl)thieno[2,3-d]pyrimidine-2-carboxamide]				128 µg/mL (≈ 261 µM)		> 50 µg/mL	> 50 µg/mL	≥ 50 µg/mL	> 50 µg/mL	> 50 µg/mL	255 µM	> 50 µg/mL	> 50 µg/mL			≥ 255 µM	≥ 255 µM
Nc1nc(N2CCN(C(=O)COc3ccc(Cl)cc3)CC2)c2nc(-c3ccc(F)cc3)[nH]c2n1 [Example 389, 1-(4-(2-amino-8-(4-fluorophenyl)-9H-purin-6-yl)piperazin-1-yl)-2-(4-chlorophenoxy)ethanone]			> 44.4 µM	> 150 µg/mL		> 16.7 µg/mL	> 50 µg/mL	16.7 µg/mL (≈ 34.6 µM)	≥ 50 µg/mL	> 50 µg/mL		37.6 µg/mL (≈ 78 µM)	> 50 µg/mL	> 44.4 µM			
